Reference: the NIST ThermoML archive (doi:10.1016/j.jct.2017.12.020)

Assays:
[1] = Liquid; for speed of sound: Frequency=2 MHz, Pulse-echo method; for mass density: Vibrating tube method
[2] = molar heat capacity at constant pressure; conditions: 101.33 kPa, Liquid, Small sample (50 mg) DSC

CCCCCCCCCCCC(=O)OCC [ethyl dodecanoate]
[1]
Conditions	mass density [kg/m3]	speed of sound [m/s]
293.15 K, 100 kPa	–	1339.9
293.15 K, 101.33 kPa	862.2	–
293.15 K, 10000 kPa	–	1390.8
293.15 K, 20000 kPa	–	1436.7
293.15 K, 30000 kPa	–	1479.3
293.15 K, 40000 kPa	–	1519
293.15 K, 50000 kPa	–	1555.9
293.15 K, 60000 kPa	–	1591.9
293.15 K, 70000 kPa	–	1626.2
293.15 K, 80000 kPa	–	1659.7
293.15 K, 90000 kPa	–	1690.9
293.15 K, 100000 kPa	–	1720.9
293.15 K, 120000 kPa	–	1778.5
303.15 K, 101.33 kPa	854.3	–
313.15 K, 100 kPa	–	1266.1
313.15 K, 101.33 kPa	846.5	–
313.15 K, 10000 kPa	–	1317.6
313.15 K, 20000 kPa	–	1365
313.15 K, 30000 kPa	–	1409.3
313.15 K, 40000 kPa	–	1452.1
313.15 K, 50000 kPa	–	1491.4
313.15 K, 60000 kPa	–	1529.2
313.15 K, 70000 kPa	–	1564.8
313.15 K, 80000 kPa	–	1600.2
313.15 K, 90000 kPa	–	1632.3
313.15 K, 100000 kPa	–	1663
313.15 K, 120000 kPa	–	1721.9
313.15 K, 140000 kPa	–	1777.9
313.15 K, 160000 kPa	–	1830.9
323.15 K, 101.33 kPa	838.8	–
333.15 K, 100 kPa	–	1194
333.15 K, 101.33 kPa	831.1	–
333.15 K, 10000 kPa	–	1250.3
333.15 K, 20000 kPa	–	1300.9
333.15 K, 30000 kPa	–	1348
333.15 K, 40000 kPa	–	1393.4
333.15 K, 50000 kPa	–	1434.3
333.15 K, 60000 kPa	–	1473.3
333.15 K, 70000 kPa	–	1509.8
333.15 K, 80000 kPa	–	1545.4
333.15 K, 90000 kPa	–	1578.6
333.15 K, 100000 kPa	–	1610.9
333.15 K, 120000 kPa	–	1674.1
333.15 K, 140000 kPa	–	1730.4
333.15 K, 160000 kPa	–	1782.7
333.15 K, 180000 kPa	–	1835.3
333.15 K, 200000 kPa	–	1883.8
343.15 K, 101.33 kPa	823.2	–
353.15 K, 100 kPa	–	1125.7
353.15 K, 101.33 kPa	815.2	–
353.15 K, 10000 kPa	–	1186
353.15 K, 20000 kPa	–	1240.6
353.15 K, 30000 kPa	–	1290.3
353.15 K, 40000 kPa	–	1337.1
353.15 K, 50000 kPa	–	1379.7
353.15 K, 60000 kPa	–	1419.8
353.15 K, 70000 kPa	–	1458.8
353.15 K, 80000 kPa	–	1496.2
353.15 K, 90000 kPa	–	1530.6
353.15 K, 100000 kPa	–	1564.4
353.15 K, 120000 kPa	–	1627
353.15 K, 140000 kPa	–	1685.1
353.15 K, 160000 kPa	–	1740.7
353.15 K, 180000 kPa	–	1793.6
353.15 K, 200000 kPa	–	1843.5

viscosity [mPa·s], [1]
Conditions	293.15 K	313.15 K	333.15 K	353.15 K
101.33 kPa, Capillary tube (Ostwald / Ubbelohde) method	3.35	2.19	1.55	1.16
10000 kPa, quartz crystal resonator	3.77	2.46	1.74	1.29
20000 kPa, quartz crystal resonator	4.28	2.75	1.91	1.44
30000 kPa, quartz crystal resonator	4.78	3.11	2.13	1.58
40000 kPa, quartz crystal resonator	5.39	3.37	2.33	1.73
50000 kPa, quartz crystal resonator	5.94	3.74	2.55	1.9
60000 kPa, quartz crystal resonator	6.65	4.11	2.82	2.05
70000 kPa, quartz crystal resonator	7.25	4.45	3.08	2.22
80000 kPa, quartz crystal resonator	8.13	4.92	3.29	2.4
90000 kPa, quartz crystal resonator	8.91	5.46	3.6	2.58
100000 kPa, quartz crystal resonator	9.76	5.96	3.94	2.78
120000 kPa, quartz crystal resonator	11.9	6.77	4.55	3.22
140000 kPa, quartz crystal resonator	–	8.06	5.27	3.68
160000 kPa, quartz crystal resonator	–	9.57	6.1	4.19
180000 kPa, quartz crystal resonator	–	–	6.98	4.76
200000 kPa, quartz crystal resonator	–	–	7.85	5.28

[2]
Conditions	molar heat capacity at constant pressure [J/K/mol]
297.91 K	459.03
307.79 K	464.37
317.66 K	469.8
327.54 K	475.42
337.42 K	481.45
347.29 K	487.46
357.17 K	493.28
367.05 K	499.88
376.92 K	507.07
386.8 K	515.39

CCCCCCCCCCCC(=O)OC [methyl dodecanoate]
[1]
Conditions	mass density [kg/m3]	speed of sound [m/s]
293.15 K, 100 kPa	–	1351.3
293.15 K, 101.33 kPa	869.2	–
293.15 K, 10000 kPa	–	1400.9
293.15 K, 20000 kPa	–	1445.1
293.15 K, 30000 kPa	–	1486.4
293.15 K, 40000 kPa	–	1526.9
293.15 K, 50000 kPa	–	1563.8
293.15 K, 60000 kPa	–	1600
293.15 K, 70000 kPa	–	1628.6
293.15 K, 80000 kPa	–	1660.5
293.15 K, 90000 kPa	–	1690.9
303.15 K, 101.33 kPa	861.4	–
313.15 K, 100 kPa	–	1276.4
313.15 K, 101.33 kPa	853.8	–
313.15 K, 10000 kPa	–	1328
313.15 K, 20000 kPa	–	1375.3
313.15 K, 30000 kPa	–	1420
313.15 K, 40000 kPa	–	1461.6
313.15 K, 50000 kPa	–	1500.9
313.15 K, 60000 kPa	–	1537
313.15 K, 70000 kPa	–	1573.3
313.15 K, 80000 kPa	–	1607.4
313.15 K, 90000 kPa	–	1637.8
313.15 K, 100000 kPa	–	1671.1
313.15 K, 120000 kPa	–	1728.6
313.15 K, 140000 kPa	–	1784.4
323.15 K, 101.33 kPa	845.8	–
333.15 K, 100 kPa	–	1205.5
333.15 K, 101.33 kPa	837.9	–
333.15 K, 10000 kPa	–	1259.6
333.15 K, 20000 kPa	–	1311
333.15 K, 30000 kPa	–	1357.5
333.15 K, 40000 kPa	–	1401
333.15 K, 50000 kPa	–	1441.3
333.15 K, 60000 kPa	–	1480.9
333.15 K, 70000 kPa	–	1515.7
333.15 K, 80000 kPa	–	1550.8
333.15 K, 90000 kPa	–	1585.9
333.15 K, 100000 kPa	–	1621.9
333.15 K, 120000 kPa	–	1682
333.15 K, 140000 kPa	–	1739.2
333.15 K, 160000 kPa	–	1791.8
333.15 K, 180000 kPa	–	1843.5
333.15 K, 200000 kPa	–	1893.2
343.15 K, 101.33 kPa	830	–
353.15 K, 100 kPa	–	1133.5
353.15 K, 101.33 kPa	822.2	–
353.15 K, 10000 kPa	–	1192.2
353.15 K, 20000 kPa	–	1247.2
353.15 K, 30000 kPa	–	1295.9
353.15 K, 40000 kPa	–	1342.5
353.15 K, 50000 kPa	–	1386.1
353.15 K, 60000 kPa	–	1426.2
353.15 K, 70000 kPa	–	1463.8
353.15 K, 80000 kPa	–	1500.1
353.15 K, 90000 kPa	–	1534.8
353.15 K, 100000 kPa	–	1568.3
353.15 K, 120000 kPa	–	1632.8
353.15 K, 140000 kPa	–	1690.8
353.15 K, 160000 kPa	–	1744.4
353.15 K, 180000 kPa	–	1802.7
353.15 K, 200000 kPa	–	1851.2

viscosity [mPa·s], [1]
Conditions	293.15 K	313.15 K	333.15 K	353.15 K
101.33 kPa, Capillary tube (Ostwald / Ubbelohde) method	3.14	2.05	1.45	1.09
10000 kPa, quartz crystal resonator	3.53	2.3	1.61	1.21
20000 kPa, quartz crystal resonator	3.96	2.59	1.78	1.33
30000 kPa, quartz crystal resonator	4.4	2.85	1.98	1.48
40000 kPa, quartz crystal resonator	5	3.16	2.18	1.62
50000 kPa, quartz crystal resonator	5.64	3.5	2.39	1.76
60000 kPa, quartz crystal resonator	6.21	3.85	2.62	1.92
70000 kPa, quartz crystal resonator	6.79	4.22	2.82	2.08
80000 kPa, quartz crystal resonator	7.58	4.64	3.07	2.25
90000 kPa, quartz crystal resonator	–	5.06	3.36	2.46
100000 kPa, quartz crystal resonator	–	5.55	3.63	2.65
120000 kPa, quartz crystal resonator	–	6.67	4.26	3.09
140000 kPa, quartz crystal resonator	–	7.67	4.95	3.54
160000 kPa, quartz crystal resonator	–	–	5.75	4.06
180000 kPa, quartz crystal resonator	–	–	6.56	4.64
200000 kPa, quartz crystal resonator	–	–	7.56	5.34

[2]
Conditions	molar heat capacity at constant pressure [J/K/mol]
297.91 K	433.79
307.79 K	438.57
317.66 K	443.29
327.54 K	448.34
337.42 K	453.83
347.29 K	459.28
357.17 K	464.66
367.05 K	470.72
376.92 K	477.82
386.8 K	485.49
